Laboratory results published in patent publication US7176281B2 (priority 2003, dated 2007).
Where a SMILES comes first, the peptide text is derived from it.

Key:
[1] = system: organotypic hippocampal slice cultures; test: Kainate-induced injury in organotypic hippocampal slice cultures, GluR1 immunoreactivity
[2] = biological target: T1, 100-kDa human recombinant cytosolic form of PLA2 (cPLA2) (Homo sapiens, UniProt P47712); test: PLA2 inhibition, E. coli membrane assay, cPLA2; assay type: biochemical; conditions: inhibition
T1 sequence (P47712 1-749): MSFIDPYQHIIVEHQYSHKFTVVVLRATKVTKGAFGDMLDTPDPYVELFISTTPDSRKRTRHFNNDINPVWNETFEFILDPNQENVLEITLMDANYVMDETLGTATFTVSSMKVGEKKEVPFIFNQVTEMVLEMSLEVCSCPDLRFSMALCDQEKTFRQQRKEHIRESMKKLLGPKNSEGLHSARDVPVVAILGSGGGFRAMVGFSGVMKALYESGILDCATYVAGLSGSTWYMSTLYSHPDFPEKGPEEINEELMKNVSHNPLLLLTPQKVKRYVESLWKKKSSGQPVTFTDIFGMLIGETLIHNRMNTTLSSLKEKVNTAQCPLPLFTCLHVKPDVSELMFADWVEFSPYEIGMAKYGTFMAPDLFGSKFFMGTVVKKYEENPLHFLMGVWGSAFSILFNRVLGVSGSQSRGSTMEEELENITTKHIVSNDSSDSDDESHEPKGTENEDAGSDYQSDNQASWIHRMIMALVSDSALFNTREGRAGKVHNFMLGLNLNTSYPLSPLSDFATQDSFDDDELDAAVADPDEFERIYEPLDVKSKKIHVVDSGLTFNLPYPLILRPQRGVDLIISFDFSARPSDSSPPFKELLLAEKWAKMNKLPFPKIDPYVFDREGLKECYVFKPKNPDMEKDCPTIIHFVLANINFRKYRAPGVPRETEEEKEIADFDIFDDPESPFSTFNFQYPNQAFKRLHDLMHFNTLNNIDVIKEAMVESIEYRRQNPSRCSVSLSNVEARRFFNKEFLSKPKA

[3] = system: mammalian (human and rat) type IIA sPLA2; assay type: binding
[4] = system: Tg197 transgenic mice (chronic inflammatory polyarthritis); test: Tg197 transgenic mouse arthritis model, experiment 2 (4 weeks, time course); assay type: in vivo
Experimental: In experiment 2, mice were divided into 6 groups (A–F), and were injected i.p with 3 weekly doses (150 μg peptide in 50 μL DMSO per dose) of either the test peptide P-NT.II or the control peptide with the scrambled sequence for 4 consecutive weeks. Tg197 mice in Group B (n=18) were further divided into 4 sub-groups (B1, B2, B3, B4). At the end of 1st week, four Tg197 mice from Group B (sub-group B1) were sacrificed and both hind legs taken for histological processing and scorings. The remaining Tg197 mice from the other sub-groups B were continued with 3 regular doses of injections per week, and four Tg197 mice from each sub-group B2 and B3, were sacrificed at the end of 2nd and 3rd weeks, respectively. At the end of 4th week, all remaining Tg197 mice ([…]) were sacrificed for collection of joint specimens.
Disease monitoring was done by gross observations based on body weight measurements and arthritis scoring, which were done twice weekly after treatment until all the animals were sacrificed at 5th week in experiment 1, or at 4th week in experiment 2. Arthritis score (AS) was recorded on both ankle joints, and average scores as shown below were taken: • 0=no arthritis (normal appearance and flexion); • 0.5=onset of arthritis (mild joint swelling); • 1.0=mild arthritis (joint distortion); • 1.5=as above+finger deformation, less strength on flexion; • […]=moderate arthritis (severe swelling, joint deformation, no strength on flexion); • 2.5=as above+finger deformation in paws; • 3.0=heavy arthritis (ankylosis detected on flexion and severely impaired movement).
For histopathological scoring, both hind legs were dissected and fixed in 10% formaldehyde overnight, decalcified in citrate-buffered formic acid for 3 days at 4° C., and processed for light microscopy (LM). • Histopathological score (HS) was evaluated as follows: • 0=no detectable pathology, • 1=hyperplasia of the synovial membrane and presence of polymorphonuclear infiltrates • 2=pannus and fibrous tissue formation and focal subchondrial bone erosion • 3=articular cartilage destruction and bone erosion • 4=articular cartilage destruction and extensive bone erosion.
Transmission electron microscopy (TEM): Ankle joints dissected from the left hind leg of each mouse were split open longitudinally through the midline between the tibia and the talus, prefixed overnight with 2.5% glutaraldehyde in phosphate buffer, pH 7.4 (PB) and rinsed with PB. After fixing with 1% osmium tetroxide in PB for 2 h, they were dehydrated in a graded series of ethanol and processed into Araldite. Semi-thin sections (1.0μ) were cut and stained with methylene blue to observe the orientation and for histopathological scorings under the light microscope. Ultra-thin sections (80–90 nm) were then cut with an ultramicrotome (Riechert-Jung Ultracut E), mounted on copper grids, counterstained with uranyl acetate and lead citrate, and evaluated under electron microscope (CM120 Biotwin, FEI Company).
Anti-inflammatory activity of the candidate peptide P-NT.II was examined as a new treatment option for modulating rheumatoid arthritis (RA) in a transgenic animal model. To evaluate the potential effectiveness of the peptide as prophylaxis against RA, two separate experiments were performed in 4 week-old transgenic (Tg197) mice and non-transgenic wild-type (wt) mice. These transgenic mice (Tg197) express human tumor necrosis factor (TNFα), a cytokine which has been implicated in the pathogenesis of human RA.

`CC[C@H](C)[C@H](NC(=O)[C@H](Cc1ccc(O)cc1)NC(=O)[C@@H](NC(=O)CNC(=O)[C@H](CC(=O)O)NC(=O)[C@H](Cc1c[nH]c2ccccc12)NC(=O)[C@@H](NC(=O)[C@H](Cc1c[nH]cn1)NC(=O)[C@@H](NC(=O)[C@H](CC(=O)O)NC(=O)[C@@H](NC(=O)[C@H](CCCNC(=N)N)NC(=O)CNC(=O)[C@@H](N)CC(C)C)C(C)C)[C@@H](C)CC)C(C)C)C(C)C)C(=O)N[C@@H](CCCNC(=N)N)C(=O)NCC(=O)N[C@@H](CCCNC(=N)N)C(=O)O` [P-NT.II] (H-LGRVDIHVWDGVYIRGR-OH; N-terminus and C-terminus assumed) was tested, and the “GluR1 immunoreactivity of pyramidal neurons after kainate” value ([1]; 10 μM added before kainate) was “significantly prevented the decrease in GluR1 immunoreactivity”, the “protection against kainite lesioned hippocampal slices” value ([1]; 6–10 μM) was “almost complete protection” and the “selectivity for sPLA2 over cPLA2” value [2] was “five-fold”. For the same molecule, the “competition with labeled P-NT.II for binding to type IIA sPLA2” value [3] was “inhibited”, the “% of total at indicated HS scores, HS 2” value ([4]; 1 wk treatment) was 100% and the “% of total at indicated HS scores, HS 3” value ([4]; 1 wk treatment) was 0%. For the same molecule, the “% of total at indicated HS scores, HS 4” value ([4]; 1 wk treatment) was 0%, the “Mean HS ± SEM” value ([4]; 1 wk treatment) was 2.12 ± 0.12 and the “HS compared to untreated or scrambled peptide treated group” value ([4]; 1–4 weeks) was “significantly reduced HS”. For the same molecule, the “ultrastructural features of the articular chondrocytes (TEM)” value ([4]; 1–4 weeks post-treatment) was “did not significantly differ from those seen in the joints of normal wildtype mice”, the “% of total at indicated HS scores, HS 2” value ([4]; 2 wk treatment) was 100% and the “% of total at indicated HS scores, HS 3” value ([4]; 2 wk treatment) was 0%. The “% of total at indicated HS scores, HS 4” value ([4]; 2 wk treatment) was 0%, the “Mean HS ± SEM” value ([4]; 2 wk treatment) was 2.37 ± 0.12 and the “% of total at indicated HS scores, HS 2” value ([4]; 3 wk treatment) was 75%. The “% of total at indicated HS scores, HS 3” value ([4]; 3 wk treatment) was 25%, the “% of total at indicated HS scores, HS 4” value ([4]; 3 wk treatment) was 0% and the “Mean HS ± SEM” value ([4]; 3 wk treatment) was 2.50 ± 0.20. The “HS of synovitis, cartilage degradation and bone erosion” value ([4]; 4 weeks post-treatment, n=4/group) was “protective effect”, the “% of total at indicated HS scores, HS 2” value ([4]; 4 wk treatment) was 75% and the “% of total at indicated HS scores, HS 3” value ([4]; 4 wk treatment) was 25%. The “% of total at indicated HS scores, HS 4” value ([4]; 4 wk treatment) was 0%, the “Mean HS ± SEM” value ([4]; 4 wk treatment) was 2.62 ± 0.31 and the “number of inflammatory cells in the synovium” value ([4]; as early as 1 week after initiation of treatment) was “reduced”. For the same molecule, the “joints either normal or only mildly affected by arthritis” value ([4]; first two weeks after peptide treatment) was 100%, the “chondrocyte necrobiosis as well as bone erosions” value ([4]; histopathologic analysis of joints) was “significantly reduced” and the “joints either normal or only mildly affected by arthritis” value ([4]; last two weeks after peptide treatment) was 75%.
